In PMC10770013, “Antiproliferative polyketides from fungus Xylaria cf. Longipes SWUF08-81 in different culture media” (Natural Products and Bioprospecting, 2024):
Converted amounts (≈) assume the structure as drawn. “Also recorded” adds a separate entry of the source.

How the values were obtained:
MCF-7 = experiment: MTT assay, antiproliferative activity against MCF-7; format: cell-based, human; details: triplicate, mean ± SD; for IC50: Homo sapiens, MCF7, 72 h
Procedure: (§1) The antiproliferative activity was evaluated by MTT (3-(4,5-dimethylthiazol-2-yl)-2,5-diphenyl tetrazolium bromide) assay. Four cancer cell lines; human cervical carcinoma (HeLa), human colon carcinoma (HT29 and HCT116) and human breast carcinoma (MCF-7), along with African green monkey kidney cells (Vero cells) were seeded in 96-well plates (8000 cells/well) and cultured for 24 h, followed by being treated with the selected compounds at 100 µg/mL for 72 h. Following this, 10 μL of MTT reagent (5 mg/mL in phosphate buffer solution (PBS)) was added to each well and further incubated at 37 °C for 2 h. Then, 100 μL of DMSO (dimethyl sulfoxide) was used to dissolve the formazan dye. Finally, the absorbance of the solution was measured using a microplate reader (Bio-Rad Laboratories, Hercules, CA) at wavelengths of 550 and 655 nm. The absorbance at 655 nm was used as a reference wavelength. […] Cisplatin was used as the positive control drug.

HCT116 = experiment: MTT assay, antiproliferative activity against HCT116; format: cell-based, human; details: for IC50: Homo sapiens, HCT-116, MTT, 72 h, triplicate, mean ± SD; for toxicity in words, HCT116: MTT assay
Procedure: as §1

Vero cells = experiment: MTT assay, antiproliferative activity against Vero cells; format: cell-based, African green monkey; details: Chlorocebus sabaeus, 72 h, triplicate, mean ± SD, normal cells
Procedure: as §1

HT29 = experiment: MTT assay, antiproliferative activity against HT29; format: cell-based, human; details: for IC50: Homo sapiens, HT-29; for toxicity in words, HT29: MTT assay
Procedure: as §1

HeLa = experiment: MTT assay, antiproliferative activity against HeLa; format: cell-based, human; details: for IC50: Homo sapiens, HeLa; for toxicity in words, HeLa: MTT assay
Procedure: as §1

[1] = tested on: cancer cell lines (HCT116, HT29, MCF-7 and HeLa); experiment: MTT assay, all four cancer cell lines together; format: cell-based, human
Procedure: as §1

[2] = tested on: HCT116, HT29, MCF-7, HeLa and Vero cells; experiment: MTT assay, all cancer cells and normal cells together; format: cell-based
Procedure: as §1

[3] = MTT, 72 h, triplicate, mean ± SD

IC50 (MCF-7) [µg/mL]	IC50 (HCT116) [µg/mL]	IC50 (HT29; [3]) [µg/mL]	IC50 (HeLa; [3]) [µg/mL]	melting point [°C]	Structure (SMILES)	IC50 (Vero cells) [µg/mL]	toxicity in words, HCT116 (HCT116)	toxicity in words, HT29 (HT29)	toxicity in words, HeLa (HeLa)	antiproliferative activity in words, all cancer cells [1]	antiproliferative activity in words, all cancer cells and normal cells ([2]; MTT assay)	IC50 ([2]; range over HCT116, HT29, MCF-7, HeLa and Vero cells, read-out: IC50 range against all cancer cells and normal cells) [µg/mL]	Antiproliferative activity, IC50 ± SD, MCF-7 (MCF-7; 72 h) [µg/mL]	Antiproliferative activity, IC50 ± SD, HT29 (HT29; [3]) [µg/mL]	Antiproliferative activity, IC50 ± SD, HeLa (HeLa; [3]) [µg/mL]
> 100	> 100	> 100	> 100	–	C[C@@H]1Cc2cccc(O)c2C(=O)O1 [Compound 3, (−)-mellein]	> 100	–	–	–	–	–	–	–	–	–
> 100	45.1 ± 3.65 (≈ 147 µM)	67.6 ± 6.99 (≈ 221 µM)	92.9 ± 2.7 (≈ 303 µM)	–	COc1cc(O)cc2c1C(=O)O[C@H](C[C@H]1CCC[C@@H](C)O1)C2 [Compound 15, (3S,2′R,6′R)-asperentin-8-O-methylether]	> 100	slightly toxic	slightly toxic	slightly toxic	–	–	–	–	–	–
> 100	54.9 ± 3.35 (≈ 247 µM)	72.6 ± 2 (≈ 327 µM)	57.8 ± 1.26 (≈ 260 µM)	–	C[C@@H]1Cc2c(C(=O)O)ccc(O)c2C(=O)O1 [Compound 5, (−)-5-carboxymellein]	> 100	slightly toxic	slightly toxic	slightly toxic	–	–	–	–	–	–
18.4 ± 0.99 (≈ 70.7 µM)	14.4 ± 0.87 (≈ 55.2 µM)	8.99 ± 1.96 (≈ 34.5 µM)	16.7 ± 0.55 (≈ 64.1 µM)	–	COc1cc2oc3cc(O)cc(O)c3c2c(C)c1O [Compound 1, 1,3,8-trihydroxy-7-methoxy-9-methyldibenzofuran]	25 ± 0.63 (≈ 96.1 µM)	–	–	–	moderate anti-proliferation	–	–	–	–	–
50.2 ± 3.85 (≈ 226 µM)	17.5 ± 1.29 (≈ 78.7 µM)	19.5 ± 0.77 (≈ 87.7 µM)	13.5 ± 1.15 (≈ 60.9 µM)	–	C[C@H]1CCC[C@H](Cc2cc(O)cc(O)c2)O1 [Compound 17, (2′R,6′S)-5-((-6-methyltetrahydro-2H-pyran-2-yl)methyl)benzene-1,3-diol]	> 100	–	–	–	moderate anti-proliferation	–	–	–	–	–
> 100	92.9 ± 2.7 (≈ 349 µM)	96.4 ± 3.37 (≈ 362 µM)	> 100	135 to 136	COC(=O)c1cc(OC)c(O)c2c1C[C@@H](C)OC2=O [Compound 2, (3R)-7-methoxy-5-methoxycarbonylmellein]	> 100	–	–	–	–	–	–	–	–	–
> 100	> 100	> 100	> 100	–	C[C@H]1C[C@@H](O)C[C@H](C[C@H]2Cc3cc(O)cc(O)c3C(=O)O2)O1 [Compound 22, 4′-hydroxyasperentin]	> 100	–	–	–	–	–	–	–	–	–
10.1 ± 0.52 (≈ 34.5 µM)	2.42 ± 0.2 (≈ 8.28 µM)	4.51 ± 0.13 (≈ 15.4 µM)	2.09 ± 0.16 (≈ 7.15 µM)	–	C[C@H]1CCC[C@H](C[C@H]2Cc3cc(O)cc(O)c3C(=O)O2)O1 [Compound 18, asperentin]	8.77 ± 0.91 (≈ 30 µM)	–	–	–	significantly toxic	strong broad spectrum	2.09 to 10.1 (≈ 7.15 to 34.5 µM)	–	–	–
> 100	> 100	> 100	> 100	–	COC(=O)c1ccc(O)c2c1C[C@@H](C)OC2=O [Compound 4, (-)-5-methoxycarbonylmellein]	> 100	–	–	–	–	–	–	–	–	–
11.7 ± 0.82 (≈ 38.2 µM)	8.69 ± 0.69 (≈ 28.4 µM)	33.3 ± 4.42 (≈ 109 µM)	4.98 ± 0.4 (≈ 16.3 µM)	–	COc1cc(O)c2c(c1)C[C@H](C[C@H]1CCC[C@H](C)O1)OC2=O [Compound 20, asperentin-6-O-methylether]	> 100	–	–	–	significantly toxic; also recorded: moderate anti-proliferation	–	–	–	–	–
> 100	66.5 ± 7.68 (≈ 217 µM)	> 100	> 100	–	COc1cc(O)cc2c1C(=O)O[C@@H](C[C@H]1CCC[C@H](C)O1)C2 [Compound 19, asperentin-8-O-methylether]	> 100	–	–	–	–	–	–	–	–	–
> 100	> 100	> 100	> 100	–	C[C@@H]1O[C@@H](C[C@H]2Cc3cc(O)cc(O)c3C(=O)O2)CC[C@@H]1O [Compound 21, 5′-hydroxyasperentin]	> 100	–	–	–	–	–	–	–	–	–
–	–	–	–	–	N.N.[Cl][Pt][Cl] [Cisplatin, reference compound]	–	–	–	–	–	–	–	3.13 ± 0.26	1.59 ± 0.07	1.93 ± 0.04
